This is an account of results in patent US10550102B2, “Indane and indoline derivatives and the use thereof as soluble guanylate cyclase activators” (NOVARTIS AG, priority 2014, dated 2020).

Some results are limits rather than exact numbers.

Chain of soluble guanylate cyclase (human GUCYA3 and GUCYB3) overexpressed in CHO cells (Q02108 whole entry partner): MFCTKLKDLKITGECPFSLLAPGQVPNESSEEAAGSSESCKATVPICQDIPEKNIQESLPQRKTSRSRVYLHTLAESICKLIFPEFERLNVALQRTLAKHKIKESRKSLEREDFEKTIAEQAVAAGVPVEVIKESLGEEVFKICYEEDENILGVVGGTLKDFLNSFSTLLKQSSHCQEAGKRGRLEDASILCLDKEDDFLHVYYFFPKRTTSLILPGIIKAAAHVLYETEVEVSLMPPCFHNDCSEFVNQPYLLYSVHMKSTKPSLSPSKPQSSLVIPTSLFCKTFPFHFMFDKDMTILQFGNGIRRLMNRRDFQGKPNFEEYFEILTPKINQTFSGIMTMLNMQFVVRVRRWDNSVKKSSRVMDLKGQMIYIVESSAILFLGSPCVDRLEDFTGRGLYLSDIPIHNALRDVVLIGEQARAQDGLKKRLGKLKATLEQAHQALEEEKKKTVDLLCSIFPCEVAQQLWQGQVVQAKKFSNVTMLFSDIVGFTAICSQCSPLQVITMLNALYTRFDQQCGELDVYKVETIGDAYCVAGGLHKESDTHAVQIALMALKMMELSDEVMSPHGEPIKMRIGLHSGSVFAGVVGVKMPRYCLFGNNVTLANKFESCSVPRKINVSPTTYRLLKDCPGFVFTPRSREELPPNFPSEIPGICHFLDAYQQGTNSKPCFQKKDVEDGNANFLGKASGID
Chain of soluble guanylate cyclase (human GUCYA3 and GUCYB3) overexpressed in CHO cells (Q02153 whole entry): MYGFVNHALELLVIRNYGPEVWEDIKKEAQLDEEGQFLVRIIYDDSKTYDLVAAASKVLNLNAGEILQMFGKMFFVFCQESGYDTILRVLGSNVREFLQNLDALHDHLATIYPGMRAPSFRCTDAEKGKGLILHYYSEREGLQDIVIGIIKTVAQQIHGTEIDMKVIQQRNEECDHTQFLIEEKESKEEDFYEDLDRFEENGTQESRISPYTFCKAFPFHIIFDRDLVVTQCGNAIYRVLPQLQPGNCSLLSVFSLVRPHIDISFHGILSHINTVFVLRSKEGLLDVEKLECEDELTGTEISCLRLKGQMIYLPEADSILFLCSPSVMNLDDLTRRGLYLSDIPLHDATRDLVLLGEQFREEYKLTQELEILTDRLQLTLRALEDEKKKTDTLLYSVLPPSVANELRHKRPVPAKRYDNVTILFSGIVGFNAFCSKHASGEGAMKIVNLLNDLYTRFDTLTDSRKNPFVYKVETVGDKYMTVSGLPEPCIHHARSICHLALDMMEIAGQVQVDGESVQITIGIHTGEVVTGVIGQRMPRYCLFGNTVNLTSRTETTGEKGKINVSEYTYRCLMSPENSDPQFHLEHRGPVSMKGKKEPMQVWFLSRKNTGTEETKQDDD

This assay deals with soluble guanylate cyclase (human GUCYA3 and GUCYB3) overexpressed in CHO cells (Homo sapiens (Human), UniProt Q02108+Q02153). The assay is described as follows: CHO cellular assay (cGMP production, Cisbio cGMP HTRF kit). In kind it is cell-based. To be noted: CHO GUCY clone 8E10, cGMP production, assay buffer with 1 mM IBMX and 20 uM ODQ, 1 h room temperature; minimum quantification limit 0.5 nM (listed 0.5 nM means ≤0.5 nM); read-out: EC50. Summed up:
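Stable CHO-K1 clone 8E10 expressing human sGC (GUCYA3/GUCYB3), 3000 cells/well, exposed 1 h at room temperature to activators in HBSS, 0.1% BSA, 1 mM IBMX, 20 uM ODQ, 0.5% DMSO final. cGMP was measured by HTRF and interpolated from a standard curve. EC50 came from a 4-parameter sigmoidal fit.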
In general terms: Time-resolved FRET reads energy transfer from a long-lived donor to a nearby acceptor.
`Cc1cc(C2CCN(C(=O)C3CC3)CC2)ccc1NC1CCc2cccc(-c3cccc(-n4ncc(C(=O)O)c4C(F)F)c3)c21` (single isomer, unassigned; (+)) [Example 55-2, (+)-1-(3-(3-((4-(1-(Cyclopropanecarbonyl)piperidin-4-yl)-2-methylphenyl)amino)-2,3-dihydro-1H-inden-4-yl)phenyl)-5-(difluoromethyl)-1H-pyrazole-4-carboxylic acid]: the EC50 – broadly, the concentration needed to bring the measured effect to its halfway point – was ≤ 0.5 nM. As for `Cc1cc(C2CCN(C(=O)CO)CC2)ccc1NC1CCc2cccc(-c3cccc(-n4ncc(C(=O)O)c4C(F)(F)F)c3)c21` (single isomer, unassigned; (+)) [Example 56], the figure is 1 nM. As for `Cc1cc(C2CCN(C(=O)C3CC3)CC2)ccc1NC1CCc2cccc(-c3cccc(-n4ncc(C(=O)O)c4CC(F)(F)F)n3)c21` (single isomer, unassigned; (+)) [Example 57, (+)-1-(6-(3-((4-(1-(Cyclopropanecarbonyl)piperidin-4-yl)-2-methylphenyl)amino)-2,3-dihydro-1H-inden-4-yl)pyridin-2-yl)-6-(2,2,2-trifluoroethyl)-1H-pyrazole-4-carboxylic Acid], the figure is 1 nM. As for `CCc1nc(NC2CCc3cccc(-c4cccc(-n5ncc(C(=O)O)c5CC)n4)c32)ccc1C1CCN(C(=O)C2CC2)CC1` (single isomer, unassigned; (+)) [Example 63a, (+)-1-(6-(3-((5-(1-(Cyclopropanecarbonyl)piperidin-4-yl)-6-ethylpyridin-2-yl)amino)-2,3-dihydro-1H-inden-4-yl)pyridin-2-yl)-5-ethyl-1H-pyrazole-4-carboxylic Acid], the figure is 2 nM; as for `Cc1cc(C2CCN(C(=O)C3CC3)CC2)ccc1OC1CCc2cccc(-c3cccc(-n4ncc(C(=O)O)c4C(F)(F)F)c3)c21` (single isomer, unassigned; (+)) [Example (+)-1. b), (+)-1-(3-(3-(4-(1-(cyclopropanecarbonyl)piperidin-4-yl)-2-methylphenoxy)-2,3-dihydro-1H-inden-4-yl)phenyl)-5-(trifluoromethyl)-1H-pyrazole-4-carboxylic acid], ≤ 0.5 nM; as for `Cc1cc(C2CCN(C(=O)C3CC3)CC2)ccc1NC1CCc2cccc(-c3cccc(-n4ncc(C(=O)O)c4C(F)(F)F)n3)c21` (single isomer, unassigned; (+)) [Example (+)-8. b), (+)-1-(6-(3-((4-(1-(cyclopropanecarbonyl)piperidin-4-yl)-2-methylphenyl)amino)-2,3-dihydro-1H-inden-4-yl)pyridin-2-yl)-5-(trifluoromethyl)-1H-pyrazole-4-carboxylic acid], ≤ 0.5 nM. Take `CCc1cc(CC2CCc3cccc(-c4cccc(-n5ncc(C(=O)O)c5CC)n4)c32)ccc1C1CCN(C(=O)C2CC2)CC1` (single isomer, unassigned; (-)) [38-1 (−), (−)-1-(6-(3-(4-(1-(cyclopropanecarbonyl)piperidin-4-yl)-3-ethylbenzyl)-2,3-dihydro-1H-inden-4-yl)pyridin-2-yl)-5-ethyl-1H-pyrazole-4-carboxylic acid]: the EC50 was 17 nM. Next, `CCc1cc(CC2CCc3cccc(-c4cccc(-n5ncc(C(=O)O)c5C)n4)c32)ccc1C1CCN(C(=O)C2CC2)CC1` (single isomer, unassigned; (-)) [38-2 (−), (−)-1-(6-(3-(4-(1-(cyclopropanecarbonyl)piperidin-4-yl)-3-ethylbenzyl)-2,3-dihydro-1H-inden-4-yl)pyridin-2-yl)-5-methyl-1H-pyrazole-4-carboxylic acid]: 9 nM; `CCc1c(C(=O)O)cnn1-c1cccc(-c2cccc3c2C(Cc2ccc(C4CCN(C(=O)C5CC5)CC4)cc2C)CC3)n1` (single isomer, unassigned; (-)) [38-3 (−), (−)-1-(6-(3-(4-(1-(cyclopropanecarbonyl)piperidin-4-yl)-2-methylbenzyl)-2,3-dihydro-1H-inden-4-yl)pyridin-2-yl)-5-ethyl-1H-pyrazole-4-carboxylic acid]: 33 nM. For `CCC[C@H](O)C(=O)N1CCC(c2ccc(CC3CCc4cccc(-c5cccc(-n6ncc(C(=O)O)c6CC)n5)c43)cc2CC)CC1` (single isomer, unassigned; (-)) [40-1 (−)], the EC50 worked out at 15 nM. Turning to `CCc1c(C(=O)O)cnn1-c1cccc(-c2cccc3c2C(Cc2ccc(C4CCN(C(=O)[C@H](C)O)CC4)cc2C)CC3)n1` (single isomer, unassigned; (-)) [40-2 (−)], the EC50 is 25 nM. As for `CCC[C@H](O)C(=O)N1CCC(c2ccc(CC3CCc4cccc(-c5cccc(-n6ncc(C(=O)O)c6CC)n5)c43)c(C)c2)CC1` (single isomer, unassigned; (-)) [40-3 (−)], the figure is 49 nM; as for `Cc1cc2c(c(-c3cccc(-n4ncc(C(=O)O)c4C(F)(F)F)n3)c1)C(Nc1ccc(C3CCN(C(=O)C4CC4)CC3)cc1C)CC2` (single isomer, unassigned; (-)) [43 (−), (−)-1-(6-(3-((4-(1-(Cyclopropanecarbonyl)piperidin-4-yl)-2-methylphenyl)amino)-6-methyl-2,3-dihydro-1H-inden-4-yl)pyridin-2-yl)-5-(trifluoromethyl)-1H-pyrazole-4-carboxylic acid], 23 nM; as for `Cc1cc(C2CCN(C(=O)C3CC3)CC2)ccc1NC1CCc2cccc(-c3cccc(-n4ncc(C(=O)O)c4C)c3)c21` (single isomer, unassigned; (-)) [44 (−), (−)-1-(3-(3-((4-(1-(cyclopropanecarbonyl)piperidin-4-yl)-2-methylphenyl)amino)-2,3-dihydro-1H-inden-4-yl)phenyl)-5-methyl-1H-pyrazole-4-carboxylic acid], 9.9 nM. Next, `Cc1cc(C2CCN(C(=O)C3CC3)CC2)ccc1CC1CCc2cccc(-c3cccc(-n4ncc(C(=O)O)c4C)c3)c21` (single isomer, unassigned; (-)) [54. b). (−), (−)-1-(3-(3-(4-(1-(cyclopropanecarbonyl)piperidin-4-yl)-2-methylbenzyl)-2,3-dihydro-1H-inden-4-yl)phenyl)-5-methyl-1H-pyrazole-4-carboxylic acid]: 168 nM; `CCc1cc(CC2CCc3cccc(-c4cccc(-n5ncc(C(=O)O)c5C)c4)c32)ccc1C1CCN(C(=O)C2CC2)CC1` (single isomer, unassigned; (-)) [55-1 (−), (−)-1-(3-(3-(4-(1-(cyclopropanecarbonyl)piperidin-4-yl)-3-ethylbenzyl)-2,3-dihydro-1H-inden-4-yl)phenyl)-5-methyl-1H-pyrazole-4-carboxylic acid]: 15 nM. Next, `Cc1nnc(N2CCC(c3ccc(NC4CCc5cccc(-c6cccc(-n7ncc(C(=O)O)c7C)n6)c54)c(C)c3)CC2)o1` (single isomer, unassigned; (-)) [58. b). (−), (−)-5-methyl-1-(6-(3-((2-methyl-4-(1-(5-methyl-1,3,4-oxadiazol-2-yl)piperidin-4-yl)phenyl)amino)-2,3-dihydro-1H-inden-4-yl)pyridin-2-yl)-1H-pyrazole-4-carboxylic acid]: 3.2 nM. For the compound `CCc1c(C(=O)O)cnn1-c1cccc(-c2cccc3c2N(Cc2ccc(C4CCN(C(=O)C5CC5)CC4)cc2C)CC3C)n1` (single isomer, unassigned; (-)) [(−)-20-2, (−)-1-(6-(1-(4-(1-(Cyclopropanecarbonyl)piperidin-4-yl)-2-methylbenzyl)-3-methylindolin-7-yl)pyridin-2-yl)-5-ethyl-1H-pyrazole-4-carboxylic acid], the concentration for a half-maximal effect (EC50) is 1 nM.
